One assay deals with T1, GST-VEGFR2 (Homo sapiens, UniProt P35968).
T1 construct: GST-VEGFR2, baculovirus expressed recombinant constructs of the intracellular domains of human TIE2 tagged by GST; made in house
Nature of the assay: VEGF-R2 enzyme assay (VEGF-E), LANCE method. It is filed as biochemical. Particulars: 75 μM ATP. Here is the method: VEGF-R2 Enzyme Assay (VEGF-E)
The VEGF enzyme assay used the LANCE method (Wallac) and GST-VEGFR2, baculovirus expressed recombinant constructs of the intracellular domains of human […] tagged by GST. […] The reaction was stopped by the addition of EDTA (final concentration 50 mM). Streptavidin linked-APC (allophycocyanin, Molecular Probe) and Europium-labeled anti-phosphorylated tyrosine antibody (Wallac) were then added at the final concentration of 15 nM and 1 nM, respectively. The APC signal was measured using an ARVO multilabel counter (Wallac Berthold, Japan). The percent inhibition of activity was calculated relative to blank control wells. The concentration of test compound that inhibits 50% of activity (IC50) was interpolated using nonlinear regression (Levernberg-Marquardt) and the equation, y=Vmax (1−x/(K+x))+Y2, where “K” was equal to the IC50. The IC50 values were converted to pIC50 values, i.e., −log IC50 in Molar concentration.
On the technique in general: Time-resolved FRET reads energy transfer from a long-lived donor to a nearby acceptor.

Assay [1] deals with T2, TIE2 intracellular domain/c-fms extracellular domain (TIE2/c-fms) chimeric protein expressing mouse 3T3 cells (Homo sapiens, UniProt Q02763).
T2 construct: a TIE2 intracellular domain/c-fms extracellular domain (TIE2/c-fms) chimeric protein; expressed in transfected cells; host or cells: mouse 3T3 cells
Description: TIE-2 autophosphorylation assay (TIE2-C), ELISA. Type of assay: cell-based. The settings on record: TIE2/c-fms 3T3 cells, MCSF activation. Here is the method:
TIE-2 Autophosphorylation Assay (TIE2-C)
The TIE-2 autophosphorylation assay used an ELISA method and a TIE2 intracellular domain/c-fms extracellular domain (TIE2/c-fms) chimeric protein expressing mouse 3T3 cells. This assay measured the autophosphorylation level of TIE2 protein expressed in cells. The cells were cultured in high glucose DMEM (Sigma) containing 10% serum at 37° C. in a humidified 10% CO2, 90% air incubator. The test compound (diluted from a 10 mM stock in DMSO, final DMSO concentration was 0.1%) was incubated with TIE2/c-fms expressing cells for 1 hr in serum free DMEM in 96 well plates followed by the activation of TIE2/c-fms receptor using c-fms ligand, MCSF (macrophage colony stimulating factor). The culture media was removed by aspiration and the cells incubated for at least 30 mins on ice with lysis buffer containing 137 mM NaCl, 2 mM EDTA, 10% glycerol, […] sodium ortho vanadate and complete protease inhibitor cocktail (Roche) in 20 mM Tris-HCl (pH8.0). The cell extracts were transferred into Rat anti-c-fms antibody coated 96 well plates and incubated for 12 hrs at 4° C. The extracts were removed by aspiration and the plate was incubated with biotinylated anti-phosphotyrosine antibody, PT66 (Sigma) and then with HRP (Horseradish Peroxidase)-labeled streptavidin (PIERCE). The optical density at 450 nm derived from HRP catalyzed TMB was measured with an ARVO multilabel counter. (Wallac Berthold Japan). The percent inhibition of activity was calculated relative to blank control wells. The concentration of test compound that inhibits 50% of activity (IC50) was interpolated using nonlinear regression (Levernberg-Marquardt) and the equation, y=Vmax (1−x/(K+x))+Y2, where “K” was equal to the IC50. The IC50 values were converted to pIC50 values, i.e., −log IC50 in Molar concentration.
On the technique in general: An ELISA detects its analyte on a solid surface through an enzyme-linked reagent.

Assay [2] has as its target T3, GST-TIE2 (intracellular domains of human TIE2) (Homo sapiens, UniProt Q02763).
T3 construct: made in house
Description: TIE-2 enzyme assay (TIE2-E), LANCE method. Type of assay: biochemical. The settings on record: 80 uM ATP. Here is the method: TIE-2Enzyme Assay (TIE2-E)
The TIE-2 enzyme assay used the LANCE method (Wallac) and GST-TIE2, baculovirus expressed recombinant constructs of the intracellular domains of human TIE2 (amino acids 762–1104, GenBank Accession # L06139) tagged by GST). […] This peptide phosphorylation was detected using the following procedure: for enzyme preactivation, GST-TIE2 was incubated for 30 mins at room temperature with 2 mM ATP, 5 mM MgCl2 and 12.5 mM DTT in 22.5 mM HEPES buffer (pH7.4). Preactivated GST-TIE2 was incubated for 30 mins at room temperature in 96 well plates with 1 μM D1-15 peptide, 80 uM ATP, 10 mM MgCl2, 0.1 mg/ml BSA and the test compound (diluted from a 10 mM stock in DMSO, final DMSO concentration was 2.4%) in 1 mM HEPES (pH7.4). The reaction was stopped by the addition of EDTA (final concentration 45 mM). Streptavidin linked-APC (allophycocyanin, Molecular Probe) and Europium-labeled anti-phosphorylated tyrosine antibody (Wallac) were then added at the final concentration of 17 μg/well and 2.1 μg/well, respectively. The APC signal was measured using an ARVO multilabel counter. (Wallac Berthold Japan). The percent inhibition of activity was calculated relative to blank control wells. The concentration of test compound that inhibits 50% of activity (IC50) was interpolated using nonlinear regression (Levernberg-Marquardt) and the equation, y=Vmax (1−x/(K+x))+Y2, where “K” was equal to the IC50. The IC50 values were converted to pIC50 values, i.e., −log IC50 in Molar concentration.

Counter-ions that a name gives are not always drawn. Some results are limits rather than exact numbers.

T2 sequence (Q02763 770-1124 limits assumed, change not shown): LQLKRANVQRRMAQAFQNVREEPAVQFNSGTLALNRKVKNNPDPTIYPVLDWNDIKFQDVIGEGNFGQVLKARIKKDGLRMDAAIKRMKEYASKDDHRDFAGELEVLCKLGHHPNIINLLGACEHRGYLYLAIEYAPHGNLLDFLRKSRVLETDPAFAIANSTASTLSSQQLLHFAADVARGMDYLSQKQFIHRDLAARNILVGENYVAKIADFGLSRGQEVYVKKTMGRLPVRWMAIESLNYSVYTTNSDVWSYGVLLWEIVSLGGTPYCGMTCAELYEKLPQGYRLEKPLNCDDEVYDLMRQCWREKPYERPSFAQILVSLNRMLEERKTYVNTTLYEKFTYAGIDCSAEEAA
T3 sequence (Q02763 762-1104): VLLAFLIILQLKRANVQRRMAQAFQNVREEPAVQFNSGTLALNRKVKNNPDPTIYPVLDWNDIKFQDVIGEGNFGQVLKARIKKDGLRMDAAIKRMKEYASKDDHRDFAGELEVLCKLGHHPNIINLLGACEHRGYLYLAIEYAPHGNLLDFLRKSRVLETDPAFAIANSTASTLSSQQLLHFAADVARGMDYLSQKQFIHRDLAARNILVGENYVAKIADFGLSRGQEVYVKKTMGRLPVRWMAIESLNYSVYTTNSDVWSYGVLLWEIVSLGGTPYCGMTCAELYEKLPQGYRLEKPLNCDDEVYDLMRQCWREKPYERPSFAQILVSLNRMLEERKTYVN
T1 sequence (P35968 786-1356 limits assumed): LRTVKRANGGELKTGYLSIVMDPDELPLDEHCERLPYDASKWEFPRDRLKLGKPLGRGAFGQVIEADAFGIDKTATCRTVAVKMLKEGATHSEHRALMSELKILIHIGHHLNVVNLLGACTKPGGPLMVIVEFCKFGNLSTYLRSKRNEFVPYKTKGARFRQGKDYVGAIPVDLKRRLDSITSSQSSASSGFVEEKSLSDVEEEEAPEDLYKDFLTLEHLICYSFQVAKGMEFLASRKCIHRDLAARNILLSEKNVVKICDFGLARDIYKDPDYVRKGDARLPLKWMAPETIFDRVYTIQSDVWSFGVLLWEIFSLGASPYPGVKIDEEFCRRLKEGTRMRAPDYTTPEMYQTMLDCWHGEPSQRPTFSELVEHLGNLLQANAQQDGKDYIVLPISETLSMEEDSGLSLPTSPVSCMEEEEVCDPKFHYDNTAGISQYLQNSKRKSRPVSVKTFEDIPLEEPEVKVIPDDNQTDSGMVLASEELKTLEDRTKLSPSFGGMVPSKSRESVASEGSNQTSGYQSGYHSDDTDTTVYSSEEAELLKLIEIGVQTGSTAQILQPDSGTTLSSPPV

Usually IC50 stands for the concentration needed to halve the response being measured. Read a high IC50 as a need for much substance. `COC(=O)Nc1nc2ccc(Oc3ccc(NC(=O)Nc4cc(C(F)(F)F)ccc4F)c[n+]3[O-])cc2[nH]1` [Example 107, Methyl N-(5-(5-((2-fluoro-5-(trifluoromethyl)phenyl)aminocarbonylamino)-1-oxo-2-pyridyloxy)-1H-benzimidazol-2-yl)carbamate]: the IC50 on GST-VEGFR2 is 100 to 1000 nM; in assay [1], 100 to 1000 nM; in assay [2], less than 100 nM.

With `CN1CCN(CCCNc2nc3ccc(Oc4ccc(NC(=O)Nc5cc(C(F)(F)F)ccc5F)cc4)cc3[nH]2)CC1` [Example 106, 2-(3-(4-methyl-1-piperazino)propylamino)-5-(4-((2-fluoro-5-(trifluoromethyl)phenyl)aminocarbonylamino)phenoxy)-1H-benzimidazole], the IC50 against GST-VEGFR2 was less than 100 nM; in assay [1] it was 100 to 1000 nM; in assay [2] it was 100 to 1000 nM.

Turning to `COC(=O)Nc1nc2cc([S+]([O-])c3ccc(NC(=O)Nc4cc(Cl)ccc4Cl)cc3)ccc2[nH]1` (stereo not shown) [Example 79, Methyl N-(5-(4-((2,5-dichlorophenyl)aminocarbonylamino)phenylsulfinyl)-1H-benzimidazol-2-yl)carbamate], the IC50 in assay [1] and in assay [2] was 100 to 1000 nM throughout.

`CCc1cccc(NC(=O)Nc2ccc(Oc3ccc4[nH]c(NC(=O)OC)nc4c3)nc2)c1` [Example 39, Methyl N-(5-(5-((3-ethylphenyl)aminocarbonylamino)-2-pyridyloxy)-1H-benzimidazol-2-yl)carbamate]: the IC50 (against GST-VEGFR2; in assay [1]; in assay [2]) was 100 to 1000 nM throughout.

As for `COC(=O)Nc1nc2cc(Oc3ccc(NC(=O)Nc4ccc(OC)cc4)cc3)ccc2[nH]1` [Example 62, Methyl N-(5-(4-((4-methoxyphenyl)aminocarbonylamino)phenoxy)-1H-benzimidazol-2-yl)carbamate], the IC50 on GST-VEGFR2 was less than 100 nM; in assay [2] it was 1000 to 10000 nM.

As to `COC(=O)Nc1nc2ncc(Oc3ccc(NC(=O)Nc4cc(C(F)(F)F)ccc4Cl)cc3)cc2[nH]1` [Example 73, Methyl N-(6-(4-((2-chloro-5-(trifluoromethyl)phenyl)aminocarbonylamino)phenoxy)-3,4-diaza-1H-indole-2-yl)carbamate dihydrochloride], the results for the IC50 (against GST-VEGFR2; in assay [1]; in assay [2]) were less than 100 nM, 100 to 1000 nM and 100 to 1000 nM, respectively.

As for `COC(=O)Nc1nc2cc(Sc3ccc(NC(=O)Nc4cc(Cl)ccc4Cl)cc3)ccc2[nH]1` [Example 57, Methyl N-(5-(4-((2,5-dichlorophenyl)aminocarbonylamino)phenylthio)-1H-benzimidazol-2-yl)carbamate], the IC50 in assay [1] was 100 to 1000 nM; in assay [2], less than 100 nM.

For `O=C(Nc1ccc(Oc2ccc3nc(NC(=O)c4ccc(-n5cccc5)cc4)[nH]c3c2)cc1)Nc1cc(C(F)(F)F)ccc1F` [Example 90, N-(5-(4-((2-Fluoro-5-(trifluoromethyl)phenyl)aminocarbonylamino)phenoxy)-1H-benzimidazol-2-yl)-4-(pyrrol-1-yl)benzamide], the IC50 against GST-VEGFR2 is less than 100 nM; in assay [1], 1000 to 10000 nM; in assay [2], less than 100 nM.

Consider `COC(=O)Nc1nc2ccc(Oc3ccc(NC(=S)Nc4cccc(C(F)(F)F)c4)cc3)cc2[nH]1` [Example 186, Methyl N-(5-(4-((3-(trifluoromethyl)phenyl)aminothiocarbonylamino)phenoxy)-1H-benzimidazol-2-yl)carbamate], for which the IC50 lay within 100 to 1000 nM in assay [1] and 1000 to 10000 nM in assay [2].

Turning to `COC(=O)Nc1nc2cc(Oc3ccc(NC(=O)Nc4ccc(F)cc4)cc3)ccc2[nH]1` [Example 63, Methyl N-(5-(4-((4-fluorophenyl)aminocarbonylamino)phenoxy)-1H-benzimidazol-2-yl)carbamate], on GST-VEGFR2, the IC50 was less than 100 nM. Moreover, the TIE2-E entry in assay [2] is on record as “−”.

`Nc1nc2ccc(Oc3ccc(NC(=O)Nc4cc(C(F)(F)F)ccc4F)nc3)cc2n1Cc1ccccc1` [Example 113, 6-(6-((2-Fluoro-5-(trifluoromethyl)phenyl)aminocarbonylamino)-3-pyridyloxy)-1-benzyl-1H-benzimidazol-2-ylamine] yielded an IC50 in assay [2] of less than 100 nM.

`CN1CCN(CCNc2nc3cc(Oc4ccc(NC(=O)Nc5cc(C(F)(F)F)ccc5F)cc4)ccc3[nH]2)CC1` [Example 104, 2-(2-(4-Methyl-1-piperazino)ethylamino)-5-(4-((2-fluoro-5-(trifluoromethyl)phenyl)aminocarbonylamino)phenoxy)-1H-benzimidazole]: the IC50 at GST-VEGFR2 was less than 100 nM; in assay [1], 100 to 1000 nM; in assay [2], 100 to 1000 nM.

For the compound `CC(=O)Nc1nc2ccc(Oc3ccc(NC(=O)Nc4cc(C(F)(F)F)ccc4F)nc3)cc2n1Cc1ccccc1` [Example 110], the concentration for half-maximal inhibition (IC50) at GST-VEGFR2 is 100 to 1000 nM; in assay [1], 100 to 1000 nM; in assay [2] it was less than 100 nM.

As for `CCc1cccc(NC(=O)Nc2cccc(Oc3ccc4[nH]c(NC(=O)OC)nc4c3)c2)c1` [Example 16, Methyl N-(5-(3-((3-ethylphenyl)aminocarbonylamino)phenoxy)-1H-benzimidazol-2-yl)carbamate], the IC50 (on GST-VEGFR2; in assay [1]; in assay [2]) was less than 100 nM in each case.

Consider `CN(C)CCNc1nc2cc(Oc3ccc(NC(=O)Nc4cc(C(F)(F)F)ccc4F)cc3)ccc2[nH]1` [Example 105, 2-(2-(Dimethylamino)ethylamino)-5-(4-((2-fluoro-5-(trifluoromethyl)phenyl)aminocarbonylamino)phenoxy)-1H-benzimidazole], for which the values for the IC50 (at GST-VEGFR2; in assay [1]; in assay [2]) were less than 100 nM, 1000 to 10000 nM and 100 to 1000 nM, respectively.

Take `O=C(Nc1ccc(Oc2ccc3nc(NC(=O)c4c[nH]c5ccccc45)[nH]c3c2)cc1)Nc1cc(C(F)(F)F)ccc1F` [Example 95, N-(5-(4-((2-Fluoro-5-(trifluoromethyl)phenyl)aminocarbonylamino)phenoxy)-1H-benzimidazol-2-yl)(1H-indole-3-carboxamide)]: the IC50 was less than 100 nM against GST-VEGFR2, 100 to 1000 nM in assay [1] and less than 100 nM in assay [2].

`O=C(Nc1ccc(Oc2ccc3[nH]c(NC(=O)c4ccccc4)nc3c2)cc1)Nc1cc(C(F)(F)F)ccc1F` [Example 99, N-(5-(4-((2-Fluoro-5-(trifluoromethyl)phenyl)aminocarbonylamino)phenoxy)-1H-benzimidazol-2-yl)benzamide]: the IC50 was 100 to 1000 nM in assay [1] and less than 100 nM in assay [2].

As to `COC(=O)Nc1nc2cc(Oc3ccc(NC(=O)Nc4cc(Cl)ccc4Cl)cn3)ccc2[nH]1` [Example 112, Methyl N-(5-(5-((2,5-dichlorophenyl)aminocarbonylamino)-2-pyridyloxy)-1H-benzimidazol-2-yl)carbamate dihydrochloride], the IC50 (at GST-VEGFR2; in assay [1]; in assay [2]) was 100 to 1000 nM in each case.
